Measurements as given in the supplement of paper PMC11208160.

test: recombinant barcode read abundance after kanamycin selection (control-corrected) (log10(CPM+1)); higher = more efficient recombination; sequences stand for … in AGTGCAGAGAAAATCGGCCAGTTTTCTCTGCCTGCAGTCCGCATGCCGT…AGATTTATGCAGCGGACTGCCTTTCTCCCAAAGTGATAAACCGGACAGTATCATGGACCGGTTTTCCCGGTAATCCGTATTTGCAAGGTTGGTTTCACT; site = the 11-nt target
Summary of the method: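 Recombination efficiency draws on barcodes counted at recombinant junctions in a pooled E. coli screen of targets paired with IS621 bridge RNA target-binding loops. The counts were converted to counts per million, averaged and corrected against the chloramphenicol/ampicillin LB agar control, then reported as log10(CPM+1). Selection plates held chloramphenicol/ampicillin/kanamycin with 0.1 mM IPTG, with two replicates per condition.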
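Also: IS621 recombinase and bridge RNA in Escherichia coli cells.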

Sequence	recombinant barcode read abundance (log10)
GTCAAGCCTTGGGTTCTAACCTGTTGCTA (site GTCAAGCCTTA)	0.705
GTCACGCCTTGGGTTCTAACCTGTTGCAT (site GACACACCTAT)	0.0978
GTCACGCCTTGGGTTCTAACCTGTTGCAT (site GTCACGCCTAT)	0.588
GTCACTACTTGGGTTCTAACCTGTTGCCG (site GTCACTACTCG)	0.74
GTCACTACTTGGGTTCTAACCTGTTGCCG (site GTCCCTACTCG)	0.0387
GTCACTACTTGGGTTCTAACCTGTTGCCG (site GTCGCTACTCG)	0.0416
GTCACTACTTGGGTTCTAACCTGTTGCCG (site GTCTCTACTCG)	0.127
GTCAGCCCTTGGGTTCTAACCTGTTGCTG (site GACAGCCCTCA)	0.379
GTCAGCCCTTGGGTTCTAACCTGTTGCTG (site GTCAGCCCTCA)	0.255
GTCATGTCTTGGGTTCTAACCTGTTGCCT (site GCCATGTCTAG)	0.781
GTCATGTCTTGGGTTCTAACCTGTTGCCT (site GTCATGTCTAG)	1.45
GTCATGTCTTGGGTTCTAACCTGTTGCTC (site AGACGACCTCC)	0.0394
GTCATGTCTTGGGTTCTAACCTGTTGCTC (site GTCATGTCTGA)	1.23
GTCCAGACTTGGGTTCTAACCTGTTGCCT (site GTACAGACTAG)	0.92
GTCCAGACTTGGGTTCTAACCTGTTGCCT (site GTCCAGACTAG)	1.97
GTCCAGACTTGGGTTCTAACCTGTTGCCT (site GTGCAGACTAG)	0.508
GTCCAGACTTGGGTTCTAACCTGTTGCCT (site GTTCAGACTAG)	0.228
GTCCAGCCTTGGGTTCTAACCTGTTGCAC (site CAAAGAGCTCA)	0.291
GTCCAGCCTTGGGTTCTAACCTGTTGCAC (site GTCCAGCCTGT)	2.18
GTCCCCTCTTGGGTTCTAACCTGTTGCCT (site GTCACCTCTAG)	0.0601

Sequence	recombinant barcode read abundance (log10)
GTCCCCTCTTGGGTTCTAACCTGTTGCCT (site GTCCCCTCTAG)	1.74
GTCCCCTCTTGGGTTCTAACCTGTTGCCT (site GTCGCCTCTAG)	0.109
GTCCCCTCTTGGGTTCTAACCTGTTGCCT (site GTCTCCTCTAG)	0.0122
GTCCCTACTTGGGTTCTAACCTGTTGCCG (site GTCACTACTCG)	0.12
GTCCCTACTTGGGTTCTAACCTGTTGCCG (site GTCCCTACTCG)	1.11
GTCCCTACTTGGGTTCTAACCTGTTGCCG (site GTCGCTACTCG)	0
GTCCCTACTTGGGTTCTAACCTGTTGCCG (site GTCTCTACTCG)	0.0614
GTCCGCTCTTGGGTTCTAACCTGTTGCCT (site ATCCGCTCTAG)	1.4
GTCCGCTCTTGGGTTCTAACCTGTTGCCT (site CTCCGCTCTAG)	0.823
GTCCGCTCTTGGGTTCTAACCTGTTGCCT (site GTCCGCTCTAG)	2.37
GTCCGCTCTTGGGTTCTAACCTGTTGCCT (site TTCCGCTCTAG)	0.383
GTCCGGTCTTGGGTTCTAACCTGTTGCTT (site GTCCGGTCTAA)	1.07
GTCCGGTCTTGGGTTCTAACCTGTTGCTT (site GTCGGGTCTAG)	0.097
GTCCGTCCTTGGGTTCTAACCTGTTGCTT (site GTCCGTCCTAA)	0.907
GTCCGTCCTTGGGTTCTAACCTGTTGCTT (site GTCCGTCCTAC)	0.0973
GTCCGTCCTTGGGTTCTAACCTGTTGCTT (site GTCCGTCCTAG)	0.249
GTCCGTCCTTGGGTTCTAACCTGTTGCTT (site GTCCGTCCTAT)	0.416
GTCCTACCTTGGGTTCTAACCTGTTGCTA (site AGAAATACTCG)	0.442
GTCCTACCTTGGGTTCTAACCTGTTGCTA (site GTCCTACCTTA)	1.63
